{
  "source": "patent US20130347140A1",
  "about": "“High Rebaudioside-A Plant and Methods of Producing the Same and Uses Thereof” (priority 2010, published 2013)",
  "origin": "cited, not measured here",
  "settings": "vs sugar",
  "data": [
    {"molecule": "C=C1C[C@@]23CC[C@H]4[C@@](C)(CCC[C@@]4(C)C(=O)O[C@@H]4O[C@H](CO)[C@@H](O)[C@H](O)[C@H]4O)[C@@H]2CC[C@]1(O[C@@H]1O[C@H](CO)[C@@H](O)[C@H](O[C@@H]2O[C@H](CO)[C@@H](O)[C@H](O)[C@H]2O)[C@H]1O[C@@H]1O[C@H](CO)[C@@H](O)[C@H](O)[C@H]1O)C3", "note": "[Rebaudioside A]", "values": [
      {"measurement": "sweetness, × of sugar", "value": "350-450 ×"}
    ]},
    {"molecule": "C=C1C[C@@]23CC[C@H]4[C@@](C)(CCC[C@@]4(C)C(=O)O[C@@H]4O[C@H](CO)[C@@H](O)[C@H](O)[C@H]4O)[C@@H]2CC[C@]1(O[C@@H]1O[C@H](CO)[C@@H](O)[C@H](O)[C@H]1O[C@@H]1O[C@H](CO)[C@@H](O)[C@H](O)[C@H]1O)C3", "note": "[Stevioside]", "values": [
      {"measurement": "sweetness, × of sugar", "value": "250-300 ×"}
    ]}
  ]
}
